Assay results published in PubChem BioAssay (NCI).
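Assay format: 96-well plates, 48-hour exposure. GI50: concentration for 50% inhibition of growth. TGI: concentration producing complete growth inhibition.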

What was measured:
Assay in all cases: NCI anticancer screen, dose series, 48 h
[1] = system: SN12C renal
[2] = system: MDA-MB-231 breast
[3] = system: SK-MEL-28 melanoma
[4] = system: KM12 colon
[5] = system: HL-60(TB) leukemia
[6] = system: PC-3 prostate
[7] = system: SNB-19 CNS
[8] = system: OVCAR-5 ovarian
[9] = system: UACC-257 melanoma
[10] = system: SF-268 CNS
[11] = system: HS 578T breast
[12] = system: OVCAR-3 ovarian
[13] = system: MOLT-4 leukemia
[14] = system: OVCAR-4 ovarian
[15] = system: NCI-H460 lung
[16] = system: SK-OV-3 ovarian
[17] = system: HT29 colon
[18] = system: HCT-15 colon
[19] = system: A498 renal
[20] = system: SF-539 CNS
[21] = system: NCI-H226 lung
[22] = system: MALME-3M melanoma
[23] = system: 786-0 renal
[24] = system: SNB-75 CNS
[25] = system: SK-MEL-2 melanoma
[26] = system: NCI-H522 lung
[27] = system: UACC-62 melanoma
[28] = system: LOX IMVI melanoma

`NC(=O)c1cc(Cl)ccc1NC(=O)/C=C/c1ccccc1` gave a GI50 [1] of 5.47 µM, a TGI [1] greater than 100 µM and a GI50 [2] of 2.6 µM. It also gave a TGI [2] greater than 100 µM, a GI50 [3] of 2.58 µM and a TGI [3] greater than 100 µM. For the same compound, the GI50 [4] was 2.19 µM, the TGI [4] was greater than 100 µM and the GI50 [5] was 1.28 µM. The TGI [5] was 4.4 µM, the GI50 [6] was 3.2 µM and the TGI [6] was greater than 100 µM. The GI50 [7] was 4.47 µM, the TGI [7] was greater than 55.6 µM and the TGI [8] was greater than 58.7 µM. It also gave a GI50 [9] greater than 38.8 µM, a TGI [9] greater than 100 µM and a GI50 [10] of 5.96 µM. It also gave a TGI [10] greater than 60.4 µM, a GI50 [11] of 3.17 µM and a TGI [11] greater than 24.5 µM. It also gave a GI50 [12] of 1.3 µM, a TGI [12] of 2.89 µM and a GI50 [13] of 3.44 µM. For the same compound, the TGI [13] was greater than 100 µM, the GI50 [14] was 2.77 µM and the TGI [14] was greater than 100 µM. The GI50 [15] was 3.09 µM, the TGI [15] was greater than 100 µM and the GI50 [16] was 4.3 µM. It also gave a TGI [16] greater than 35.5 µM, a GI50 [17] of 2.22 µM and a TGI [17] greater than 100 µM. It also gave a GI50 [18] of 2.38 µM, a TGI [18] greater than 100 µM and a GI50 [19] of 5.09 µM. The TGI [19] was greater than 53.7 µM, the GI50 [20] was 2.05 µM and the TGI [20] was 5.53 µM. The GI50 [21] was 6.42 µM, the TGI [21] was greater than 100 µM and the GI50 [22] was 3.18 µM. It also gave a TGI [22] greater than 100 µM, a GI50 [23] of 3.86 µM and a TGI [23] greater than 34.8 µM. The GI50 [24] was 3.16 µM, the TGI [24] was greater than 23.7 µM and the GI50 [25] was 3.95 µM. The TGI [25] was greater than 39.3 µM, the GI50 [26] was 1.81 µM and the TGI [26] was 6.42 µM. It also gave a GI50 [27] of 2.18 µM, a TGI [27] greater than 100 µM and a GI50 [28] of 4.33 µM. For the same compound, the TGI [28] was greater than 100 µM.
